Test results published in ChEMBL document CHEMBL5316324, “Discovery, Characterization, and Engineering of LvIC, an α4/4-Conotoxin That Selectively Blocks Rat α6/α3β4 Nicotinic Acetylcholine Receptors” (J Med Chem, 2023).
The source made the active and inactive calls. The calls are words filed in the database; no cut-off is given here. Peptide text beside a SMILES is read from it.

Legend:
[1] = molecular target: T1, Nicotinic acetylcholine receptor alpha6/alpha3/beta4 (Rattus norvegicus) (UniProt P04757+P12392+P43143); assay: Inhibition of rat alpha6/alpha3beta4 nAChR expressed in Stage V-VI Xenopus laevis Oocytes assessed as acetylcholine-induced current response at 1 uM in presence of 100 uM acetylcholine by electrophysiological recording relative to control; assay type: cell-based; design: scale not given: the % may be the effect or the level left; settings: Oocyte
[2] = Inhibition of rat alpha6/alpha3 D152A mutant beta4 nAChR expressed in Stage V-VI Xenopus laevis Oocytes assessed as inhibition of acetylcholine-induced current in presence of acetylcholine by electrophysiological recording; assay type: cell-based; settings: Oocyte
[3] = molecular target: T1, Nicotinic acetylcholine receptor alpha6/alpha3/beta4 (Rattus norvegicus); assay: Inhibition of rat alpha6/alpha3beta4 nAChR expressed in Stage V-VI Xenopus laevis Oocytes assessed as inhibition of acetylcholine-induced current at 10 uM in presence of acetylcholine by electrophysiological recording; assay type: cell-based; settings: Oocyte
[4] = molecular target: T2, Neuronal acetylcholine receptor; alpha3/beta4 (Rattus norvegicus) (UniProt P04757+P12392); assay: Inhibition of rat alpha3beta4 nAChR expressed in Stage V-VI Xenopus laevis Oocytes assessed as inhibition of acetylcholine-induced current at 10 uM in presence of acetylcholine by electrophysiological recording; assay type: cell-based; settings: Oocyte
[5] = molecular target: Neuronal acetylcholine receptor; alpha4/beta4 (Rattus norvegicus, UniProt P09483+P12392); assay: Inhibition of rat alpha4/beta4 nAChR expressed in Stage V-VI Xenopus laevis Oocytes assessed as inhibition of acetylcholine-induced current in presence of acetylcholine by electrophysiological recording; assay type: cell-based, Oocyte
Chain of Neuronal acetylcholine receptor; alpha4/beta4 (P09483 whole entry): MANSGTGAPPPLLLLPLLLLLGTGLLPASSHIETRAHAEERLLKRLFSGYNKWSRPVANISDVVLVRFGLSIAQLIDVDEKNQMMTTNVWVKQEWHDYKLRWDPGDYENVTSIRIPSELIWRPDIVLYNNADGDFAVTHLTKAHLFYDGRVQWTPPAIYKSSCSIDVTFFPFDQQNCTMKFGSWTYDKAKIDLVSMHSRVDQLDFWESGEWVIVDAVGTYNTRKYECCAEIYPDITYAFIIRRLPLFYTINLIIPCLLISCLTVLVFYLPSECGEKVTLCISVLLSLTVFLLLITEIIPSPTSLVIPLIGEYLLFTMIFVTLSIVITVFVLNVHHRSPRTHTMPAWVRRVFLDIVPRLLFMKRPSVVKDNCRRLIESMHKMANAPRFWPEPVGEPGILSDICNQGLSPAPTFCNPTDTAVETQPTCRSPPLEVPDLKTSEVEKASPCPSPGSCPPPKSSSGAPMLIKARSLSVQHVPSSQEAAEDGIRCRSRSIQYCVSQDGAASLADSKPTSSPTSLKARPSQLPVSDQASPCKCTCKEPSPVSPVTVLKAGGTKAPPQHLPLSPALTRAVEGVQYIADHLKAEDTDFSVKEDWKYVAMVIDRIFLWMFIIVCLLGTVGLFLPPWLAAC
Chain of Neuronal acetylcholine receptor; alpha4/beta4 (P12392 whole entry): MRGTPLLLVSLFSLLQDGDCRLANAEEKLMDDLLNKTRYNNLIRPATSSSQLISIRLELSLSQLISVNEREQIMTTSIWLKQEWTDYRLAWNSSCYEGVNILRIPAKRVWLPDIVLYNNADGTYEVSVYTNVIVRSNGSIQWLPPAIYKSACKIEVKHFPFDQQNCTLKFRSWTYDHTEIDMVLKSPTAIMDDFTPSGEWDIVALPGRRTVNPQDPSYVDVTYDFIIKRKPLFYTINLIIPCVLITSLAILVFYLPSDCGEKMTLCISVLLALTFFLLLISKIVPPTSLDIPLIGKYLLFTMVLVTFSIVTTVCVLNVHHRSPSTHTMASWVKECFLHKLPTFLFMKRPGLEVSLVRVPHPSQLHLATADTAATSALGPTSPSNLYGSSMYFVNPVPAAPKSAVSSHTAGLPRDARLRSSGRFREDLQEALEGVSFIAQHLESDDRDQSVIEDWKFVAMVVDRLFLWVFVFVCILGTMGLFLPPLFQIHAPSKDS

[6] = molecular target: Nicotinic acetylcholine receptor alpha1/beta1/epsilon/delta (Mus musculus, UniProt P02716+P04756+P09690+P20782); assay: Inhibition of mouse alpha1/beta1deltaepsilon nAChR expressed in Stage V-VI Xenopus laevis Oocytes assessed as inhibition of acetylcholine-induced current in presence of acetylcholine by electrophysiological recording; assay type: cell-based, Oocyte
Chain of Nicotinic acetylcholine receptor alpha1/beta1/epsilon/delta (P04756 whole entry): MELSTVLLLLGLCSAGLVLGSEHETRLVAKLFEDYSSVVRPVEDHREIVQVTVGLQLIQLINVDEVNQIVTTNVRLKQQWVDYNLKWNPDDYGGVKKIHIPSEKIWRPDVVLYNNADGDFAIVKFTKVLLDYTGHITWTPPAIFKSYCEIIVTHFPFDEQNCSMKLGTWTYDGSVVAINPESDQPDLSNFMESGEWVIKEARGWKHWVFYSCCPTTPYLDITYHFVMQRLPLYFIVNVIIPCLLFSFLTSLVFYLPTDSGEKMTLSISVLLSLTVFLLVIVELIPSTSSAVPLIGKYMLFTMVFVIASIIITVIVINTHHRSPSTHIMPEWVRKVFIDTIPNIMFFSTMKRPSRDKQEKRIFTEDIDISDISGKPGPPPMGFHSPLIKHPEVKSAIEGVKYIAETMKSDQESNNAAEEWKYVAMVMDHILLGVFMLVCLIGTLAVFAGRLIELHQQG
Chain of Nicotinic acetylcholine receptor alpha1/beta1/epsilon/delta (P09690 whole entry): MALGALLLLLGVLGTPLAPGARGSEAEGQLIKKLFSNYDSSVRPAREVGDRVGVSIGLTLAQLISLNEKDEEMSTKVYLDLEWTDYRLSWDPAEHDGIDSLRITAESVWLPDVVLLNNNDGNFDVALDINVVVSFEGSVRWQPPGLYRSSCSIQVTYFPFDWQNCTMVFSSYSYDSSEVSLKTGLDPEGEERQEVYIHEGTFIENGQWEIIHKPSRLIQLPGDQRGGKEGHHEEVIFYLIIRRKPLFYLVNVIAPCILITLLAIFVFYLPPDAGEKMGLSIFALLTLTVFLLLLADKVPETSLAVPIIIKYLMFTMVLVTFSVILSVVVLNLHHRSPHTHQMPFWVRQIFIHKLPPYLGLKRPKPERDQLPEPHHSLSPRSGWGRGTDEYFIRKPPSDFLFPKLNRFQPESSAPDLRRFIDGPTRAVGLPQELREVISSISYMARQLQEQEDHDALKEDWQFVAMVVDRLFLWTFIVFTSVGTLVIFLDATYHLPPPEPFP
Chain of Nicotinic acetylcholine receptor alpha1/beta1/epsilon/delta (P02716 whole entry): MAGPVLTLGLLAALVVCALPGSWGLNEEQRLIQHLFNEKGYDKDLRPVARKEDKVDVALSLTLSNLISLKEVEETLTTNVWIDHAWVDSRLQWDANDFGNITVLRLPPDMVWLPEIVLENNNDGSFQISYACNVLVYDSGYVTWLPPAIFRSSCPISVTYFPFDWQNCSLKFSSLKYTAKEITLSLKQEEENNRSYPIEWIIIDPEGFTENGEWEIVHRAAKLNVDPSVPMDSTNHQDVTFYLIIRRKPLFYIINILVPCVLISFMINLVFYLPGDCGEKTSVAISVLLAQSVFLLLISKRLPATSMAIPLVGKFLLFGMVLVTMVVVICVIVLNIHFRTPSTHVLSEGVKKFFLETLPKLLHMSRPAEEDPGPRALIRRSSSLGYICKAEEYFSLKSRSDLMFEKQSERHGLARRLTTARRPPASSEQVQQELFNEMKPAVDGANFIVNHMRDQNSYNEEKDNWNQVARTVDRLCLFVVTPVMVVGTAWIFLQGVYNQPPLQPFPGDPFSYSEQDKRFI
Chain of Nicotinic acetylcholine receptor alpha1/beta1/epsilon/delta (P20782 whole entry): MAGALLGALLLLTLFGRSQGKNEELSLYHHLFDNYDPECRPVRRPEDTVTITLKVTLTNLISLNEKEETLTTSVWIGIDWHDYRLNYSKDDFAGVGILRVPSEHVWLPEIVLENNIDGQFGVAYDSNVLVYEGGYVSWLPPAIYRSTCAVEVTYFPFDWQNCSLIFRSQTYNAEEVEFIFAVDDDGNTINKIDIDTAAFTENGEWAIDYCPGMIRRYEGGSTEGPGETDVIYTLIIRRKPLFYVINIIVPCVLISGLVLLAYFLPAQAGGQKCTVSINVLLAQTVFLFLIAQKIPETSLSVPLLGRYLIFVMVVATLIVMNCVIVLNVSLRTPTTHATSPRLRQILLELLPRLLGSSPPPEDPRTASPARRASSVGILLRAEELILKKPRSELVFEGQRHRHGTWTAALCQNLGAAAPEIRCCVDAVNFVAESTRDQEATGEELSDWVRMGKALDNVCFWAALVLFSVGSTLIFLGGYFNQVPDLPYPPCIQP

[7] = molecular target: Neuronal acetylcholine receptor; alpha2/beta4 (Rattus norvegicus) (UniProt P12389+P12392); assay: Inhibition of rat alpha2/beta4 nAChR expressed in Stage V-VI Xenopus laevis Oocytes assessed as inhibition of acetylcholine-induced current at 10 uM in presence of acetylcholine by electrophysiological recording relative to control; assay type: cell-based; settings: Oocyte
[8] = molecular target: T2, Neuronal acetylcholine receptor; alpha3/beta4 (Rattus norvegicus); assay: Inhibition of rat alpha3/beta4 nAChR expressed in Stage V-VI Xenopus laevis Oocytes assessed as inhibition of acetylcholine-induced current at 10 uM in presence of acetylcholine by electrophysiological recording relative to control; assay type: cell-based; settings: Oocyte
[9] = molecular target: Neuronal acetylcholine receptor subunit alpha-7 (Rattus norvegicus) (UniProt Q05941); assay: Inhibition of rat alpha7 nAChR expressed in Stage V-VI Xenopus laevis Oocytes assessed as inhibition of acetylcholine-induced current at 10 uM in presence of acetylcholine by electrophysiological recording relative to control; assay type: cell-based; settings: Oocyte
Chain of Neuronal acetylcholine receptor subunit alpha-7 (Rattus norvegicus) (Q05941 whole entry): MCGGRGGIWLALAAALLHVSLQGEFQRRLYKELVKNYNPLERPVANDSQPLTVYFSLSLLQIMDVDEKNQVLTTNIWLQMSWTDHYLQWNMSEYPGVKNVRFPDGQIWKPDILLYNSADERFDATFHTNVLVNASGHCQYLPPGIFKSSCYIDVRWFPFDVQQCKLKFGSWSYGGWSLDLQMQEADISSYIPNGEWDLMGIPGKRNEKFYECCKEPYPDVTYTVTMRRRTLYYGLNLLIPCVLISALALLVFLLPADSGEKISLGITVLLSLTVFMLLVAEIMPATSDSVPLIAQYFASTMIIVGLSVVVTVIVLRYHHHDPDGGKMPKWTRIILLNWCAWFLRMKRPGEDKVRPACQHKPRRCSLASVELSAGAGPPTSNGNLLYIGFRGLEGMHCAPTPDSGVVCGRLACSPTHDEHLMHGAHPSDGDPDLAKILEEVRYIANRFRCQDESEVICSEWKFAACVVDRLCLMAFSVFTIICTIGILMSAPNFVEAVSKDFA

[10] = molecular target: Nicotinic acetylcholine receptor alpha9/alpha10 (Rattus norvegicus) (UniProt P43144+Q9JLB5); assay: Inhibition of rat alpha9/alpha10 nAChR expressed in Stage V-VI Xenopus laevis Oocytes assessed as inhibition of acetylcholine-induced current at 10 uM in presence of acetylcholine by electrophysiological recording relative to control; assay type: cell-based; settings: Oocyte
[11] = molecular target: Nicotinic acetylcholine receptor alpha1/beta1/epsilon/delta (Mus musculus) (UniProt P04756+P09690+P02716+P20782); assay: Inhibition of mouse alpha1/beta1deltaepsilon nAChR expressed in Stage V-VI Xenopus laevis Oocytes assessed as inhibition of acetylcholine-induced current at 10 uM in presence of acetylcholine by electrophysiological recording relative to control; assay type: cell-based; settings: Oocyte
Oocyte [12] = assay: Inhibition of rat alpha6/alpha3 D152A mutant beta4 nAChR expressed in Stage V-VI Xenopus laevis Oocytes assessed as acetylcholine-induced current response at 1 uM in presence of 100 uM acetylcholine by electrophysiological recording relative to control; assay type: cell-based; design: scale not given: the % may be the effect or the level left
[13] = molecular target: T1, Nicotinic acetylcholine receptor alpha6/alpha3/beta4 (Rattus norvegicus); assay: Inhibition of rat alpha6/alpha3beta4 nAChR expressed in Stage V-VI Xenopus laevis Oocytes assessed as acetylcholine-induced current response at 100 nM in presence of 100 uM acetylcholine by electrophysiological recording relative to control; assay type: cell-based; settings: Oocyte
Oocyte [14] = assay: Inhibition of rat alpha6/alpha3 D152A mutant beta4 nAChR expressed in Stage V-VI Xenopus laevis Oocytes assessed as acetylcholine-induced current response at 100 nM in presence of 100 uM acetylcholine by electrophysiological recording relative to control; assay type: cell-based; design: scale not given: the % may be the effect or the level left
Oocyte [15] = assay: Inhibition of rat alpha6/alpha3 E195A mutant beta4 nAChR expressed in Stage V-VI Xenopus laevis Oocytes assessed as acetylcholine-induced current response at 100 nM in presence of 100 uM acetylcholine by electrophysiological recording relative to control; assay type: cell-based
Oocyte [16] = assay: Inhibition of rat alpha6/alpha3beta4 K57T mutant nAChR expressed in Stage V-VI Xenopus laevis Oocytes assessed as acetylcholine-induced current response at 1 uM in presence of 100 uM acetylcholine by electrophysiological recording relative to control; assay type: cell-based
Oocyte [17] = assay: Inhibition of rat alpha6/alpha3beta4 K57T mutant nAChR expressed in Stage V-VI Xenopus laevis Oocytes assessed as acetylcholine-induced current response at 100 uM in presence of 100 uM acetylcholine by electrophysiological recording relative to control; assay type: cell-based
Oocyte [18] = assay: Inhibition of rat alpha6/alpha3 T59K mutant beta4 nAChR expressed in Stage V-VI Xenopus laevis Oocytes assessed as inhibition of acetylcholine-induced current by measuring recovery time at 10 uM preincubated with compound for 5 mins followed by washout in presence of acetylcholine by electrophysiological recording; assay type: cell-based
Oocyte [19] = assay: Inhibition of rat alpha6/alpha3 E34M mutant beta4 nAChR expressed in Stage V-VI Xenopus laevis Oocytes assessed as inhibition of acetylcholine-induced current by measuring recovery at 10 uM preincubated with compound for 5 mins followed by washout in presence of acetylcholine by electrophysiological recording; assay type: cell-based; design: scale not given: the % may be the effect or the level left
[20] = Inhibition of rat alpha6/alpha3beta4 E34M mutant nAChR expressed in Stage V-VI Xenopus laevis Oocytes assessed as inhibition of acetylcholine-induced current in presence of acetylcholine by electrophysiological recording; assay type: cell-based; settings: Oocyte
[21] = Inhibition of rat alpha6/alpha3beta4 K57T mutant nAChR expressed in Stage V-VI Xenopus laevis Oocytes assessed as inhibition of acetylcholine-induced current in presence of acetylcholine by electrophysiological recording; assay type: cell-based; settings: Oocyte
[22] = Inhibition of rat alpha6/alpha3beta4 I166S mutant nAChR expressed in Stage V-VI Xenopus laevis Oocytes assessed as inhibition of acetylcholine-induced current in presence of acetylcholine by electrophysiological recording; assay type: cell-based; settings: Oocyte
Rattus norvegicus [23] = species: Rattus norvegicus; assay: Selectivity index, ratio of IC50 for rat alpha6/alpha3 E195A mutant beta4 nAChR expressed in Stage V-VI Xenopus laevis oocytes to IC50 for rat alpha6/alpha3beta4 nAChR expressed in Stage V-VI Xenopus laevis Oocytes by electrophysiological recording; assay type: cell-based
Rattus norvegicus [24] = species: Rattus norvegicus; assay: Selectivity index, ratio of IC50 for rat alpha6/alpha3beta4 K57T mutant nAChR expressed in Stage V-VI Xenopus laevis oocytes to IC50 for rat alpha6/alpha3beta4 nAChR expressed in Stage V-VI Xenopus laevis Oocytes by electrophysiological recording; assay type: cell-based
Rattus norvegicus [25] = species: Rattus norvegicus; assay: Selectivity index, ratio of IC50 for rat alpha6/alpha3beta4 1166S mutant nAChR expressed in Stage V-VI Xenopus laevis oocytes to IC50 for rat alpha6/alpha3beta4 nAChR expressed in Stage V-VI Xenopus laevis Oocytes by electrophysiological recording; assay type: cell-based

CC(C)[C@H](NC(=O)[C@@H]1CCCN1C(=O)[C@H](CC(N)=O)NC(=O)[C@H](C)NC(=O)[C@H](CS)NC(=O)[C@H](CS)NC(=O)[C@@H](N)CCCNC(=N)N)C(=O)N[C@@H](CS)C(=O)N[C@@H](CC(N)=O)C(=O)NCC(=O)N[C@@H](CCCCN)C(=O)N[C@@H](Cc1cnc[nH]1)C(=O)N[C@@H](CS)C(N)=O (H-RCCANPVCNGKHC-NH2)
Activity [1]: 96%
IC50 [2]: 470 nM
inhibition [3]: Active
inhibition [4]: inactive
IC50 [5]: > 10000 nM
IC50 [6]: > 10000 nM
inhibition [7]: < 50%
inhibition [8]: < 50%
inhibition [9]: < 50%
inhibition [10]: < 50%
inhibition [11]: < 50%
Activity (Oocyte [12]): 63.8%
inhibition [13]: 85.5%
Activity (Oocyte [14]): 22.6%
inhibition (Oocyte [15]): 9.11%
inhibition (Oocyte [16]): 92.7%
inhibition (Oocyte [17]): 43.2%
TIME (Oocyte [18]): 0.0333 h
Activity (Oocyte [19]): 70%
IC50 [20]: 18.5 nM
IC50 [21]: 134 nM
IC50 [22]: 50.8 nM
Ratio IC50 (Rattus norvegicus [23]): 50.5
Ratio IC50 (Rattus norvegicus [24]): 7
Ratio IC50 (Rattus norvegicus [25]): 2.7
